How the values were obtained:
Assay type in all cases: physicochemical
[1] = In vitro release of AMP from PEG2000-containing PU rods; conditions: pH 4.2 acetate buffer; for release profile: 37° C.
Protocol: Incorporation of AMP in PU matrix: Homogenous distribution of AMP and PEG2000 in the PU matrix was achieved by solvent casting. AMP (500 mg), PEG2000 (500 mg (5% w/w), 1000 mg (10% w/w) and 1500 mg (15% w/w)) and PU (added to make the total weight of PEG+AMP+PU mixture to 10 g) were dissolved in 75:25 mixture of dichloromethane and tetrahydrofuran. About 75% of the solvent was removed under reduced pressure and the viscous solution of PU, AMP and PEG2000 was poured into a silanized crystallization flask which was further dried under air at a flow rate of 4 L/min for 2-3 days. The […] incorporated PU films thus obtained were cut into small pieces and further dried under high vacuum until constant weight was achieved.
Extrusion of PEG2000 and AMP loaded solid cross-sectional PU: Extrusion was conducted at 165-175° C. into solid cross-sectional rods using a lab scale extruder (CSI Max Mixing Extruder CS-194A, Custom Scientific Instrument Inc., Easton, Pa.). The extruded and molten polymer output from the extruder was immediately fed to an aluminum mold (4.3 mm diameter, 25 cm length, previously spray coated with mold release agent) maintained at 120° C. The mold was cooled to below 80° C. and opened carefully without stretching the PU rod. The release profile of AMP was measured from PU rods using pH 4.2 25 mM acetate buffer (osmolarity adjusted to 310 mOsm/kg using NaCl, 0.02% sodium azide) at 37° C. and 60 rpm. About 2 cm length segments were cut from the solid cross-sectional AMP loaded PU rods. The dimensions (length and diameter) and weight of each segment were recorded. The sink was replaced with fresh buffer every 24±0.5 h for 10 days. HPLC analyses were performed and the cumulative release was calculated by integrating the area under the curve using Kaleidagraph software (Synergy Software, Reading, Pa.). The release study for each loading was performed on triplicate samples. […] A burst release is obtained in all PEG-PU compositions that is proportional to the PEG concentration.

[2] = Release of Tenofovir from Tecoflex EG-80A and EG-85A small rings with and without PEG2000; conditions: Tecoflex EG-80A and EG-85A matrices, 50 mg/g, 5% w/w PEG, pH 4.2 acetate buffer, 15 days
Protocol: Incorporation of Tenofovir and PEG2000 in Tecoflex EG-80A and EG-85A matrices: Homogenous distribution of Tenofovir and PEG2000 in Tecoflex EG-80A or EG-85A_matrices were achieved by solvent casting. Tenofovir (500 mg) with or without PEG2000 (500 mg) were dissolved in 75:25 mixture of dichloromethane and tetrahydrofuran. About 75% of the solvent was removed under reduced pressure and the viscous solution was poured into a silanized crystallization flask which was further dried under air at a flow rate of 4 L/min for 2-3 days. The Tenofovir incorporated polymer films thus obtained were cut into small pieces and further dried under high vacuum until constant weight was achieved.
Solid cross-sectional rods were obtained by extrusion of polymer films obtained in the above step at 155-165° C. using a lab scale extruder (CSI Max Mixing Extruder CS-194A, Custom Scientific Instrument Inc., Easton, Pa.). Small rings were fabricated by joining the ends of rods of approximately 6 cm in length. The release profile of Tenofovir was measured from Tenofovir loaded small rings using pH 4.2 25 mM acetate buffer (osmolarity adjusted to 310 mOsm/kg using NaCl, 0.02% sodium azide) at 37° C. and 60 rpm. […] HPLC analyses were performed and the cumulative release was calculated by integrating the area under the curve using Kaleidagraph software (Synergy Software, Reading, Pa.). […]

[3] = Release of Tenofovir from Tecoflex EG-93A matrices with PEG2000 with and without salts; conditions: 5% w/w PEG
Protocol: Incorporation of Tenofovir and PEG2000 and salts in EG-93A matrices: Homogenous distribution of Tenofovir, PEG2000 with and without salts in Tecoflex EG-93A_matrices were achieved by solvent casting. Tenofovir (250 mg), PEG2000 (250 mg (5% w/w)) and salts (NaCl=50 mg (1% w/w) or 125 mg (2.5% w/w) or CaCl2=125 mg (2.5% w/w)) were dispersed in 75:25 mixture of dichloromethane and tetrahydrofuran followed by sonication for 30 minutes. About 75% of the solvent was removed under reduced pressure and the viscous solution was poured into a silanized crystallization flask which was further dried under air at a flow rate of 4 L/min for 2-3 days. The Tenofovir incorporated polymer films thus obtained were cut into small pieces and further dried under high vacuum until constant weight was achieved. About 1.2 g of the polymer film pieces were taken in a 20 mL scintillation vial which was incubated at 210° C. for about 5-6 minutes to allow the polymer pieces to melt and fuse to form a continuous film in the bottom of the vial. Then 5 mL of sink (25 mM pH 4.2 buffer, osmolarity adjusted to 310 mOsm/kg with NaCl, and 0.02% sodium azide) was added. The sink was replaced with fresh buffer every 24±0.5 h for 15 days. HPLC analyses were performed and the cumulative release was calculated by integrating the area under the curve using Kaleidagraph software (Synergy Software, Reading, Pa.). […]

Structure (SMILES)	release profile ([1]; 5% w/w PEG in PU)	release profile ([1]; 10% w/w PEG in PU)	release profile ([1]; 15% w/w PEG in PU)	effect of PEG incorporation on release ([1]; PEG-PU rods vs PU)	effect of PEG incorporation on release [2]	release profile ([3]; 2.5 w/w CaCl2)	release profile ([3]; 2.5 w/w NaCl)
Nc1ncnc2c1ncn2[C@@H]1O[C@H](COP(=O)(O)O)[C@@H](O)[C@H]1O [AMP, Adenosine Monophosphate]	zero order	diffusion limited	diffusion limited	increases the overall amount of drug released per day	–	–	–
C[C@H](Cn1cnc2c(N)ncnc21)OCP(=O)(O)O [Tenofovir, ({[(2R)-1-(6-amino-9H-purin-9-yl)propan-2-yl]oxy}methyl)phosphonic acid]	–	–	–	–	increases the overall amount of drug released per day	nearly zero-order release	nearly zero-order release

— patent US20110045076A1, “LINEAR ORDER RELEASE POLYMER” (priority 2008, published 2011)
